Columns and labels:
[1] = biological target: T1, human recombinant histamine H1 receptor (Homo sapiens, UniProt P35367); test: Histamine H1 radioligand binding ([3H]Pyrilamine); settings: compound at 1 μM; read-out: Histamine Binding (1 μM) H1, percent inhibition of specific binding
T1 construct: expressed in transfected cells; host or cells: CHO cells
Procedure, shortened: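 Membranes from CHO cells expressing the receptor were incubated with compound and 1.2 nM [3H]pyrilamine for 180 min at 25 °C in 50 mM Tris-HCl pH 7.4 with MgCl2, NaCl and sucrose; 1 μM pyrilamine defined non-specific binding. Filter-bound radioactivity was counted.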

[2] = biological target: T2, human recombinant histamine H2 receptor (Homo sapiens, UniProt P25021); test: Histamine H2 radioligand binding ([125I]Aminopotentidine); settings: compound at 1 μM; read-out: Histamine Binding (1 μM) H2, percent inhibition of specific binding
T2 construct: expressed in transfected cells; host or cells: CHO-K1 cells
Procedure, shortened: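 Membranes from CHO-K1 cells expressing recombinant human H2 receptor, in 50 mM phosphate buffer pH 7.4, incubated with 0.1 nM [125I]aminopotentidine for 120 min at 25 °C; nonspecific binding defined with 3 μM tiotidine.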

[3] = biological target: T3, human recombinant adrenergic α2A receptor (Homo sapiens, UniProt P08913); test: Adrenergic alpha2A radioligand binding ([3H]MK-912); settings: compound at 1 μM; read-out: Adrenergic (1 μM) α2A, percent inhibition of specific binding
T3 construct: expressed in transfected cells; host or cells: insect Sf9 cells
T3 sequence (P08913 1-465): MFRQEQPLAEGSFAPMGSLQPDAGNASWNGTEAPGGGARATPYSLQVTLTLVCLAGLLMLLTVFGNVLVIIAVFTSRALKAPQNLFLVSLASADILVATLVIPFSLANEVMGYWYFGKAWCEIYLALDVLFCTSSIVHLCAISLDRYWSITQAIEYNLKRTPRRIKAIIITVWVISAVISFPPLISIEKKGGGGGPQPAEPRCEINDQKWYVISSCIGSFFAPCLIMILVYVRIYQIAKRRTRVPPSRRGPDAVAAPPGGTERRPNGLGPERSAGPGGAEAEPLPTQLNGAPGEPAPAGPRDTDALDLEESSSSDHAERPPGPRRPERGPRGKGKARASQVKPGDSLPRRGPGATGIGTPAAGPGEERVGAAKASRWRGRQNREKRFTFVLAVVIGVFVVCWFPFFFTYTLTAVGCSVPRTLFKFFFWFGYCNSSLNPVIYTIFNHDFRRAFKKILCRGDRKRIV
Experimental: To evaluate in radioligand binding assays the activity of compounds of the invention, human recombinant adrenergic α2A receptor expressed in insect Sf9 cells (Uhlen S et al. J Pharmacol Exp Ther. 271:1558, 1994) in a modified Tris-HCl buffer (50 mM Tris-HCl, pH 7.4, 12.5 mM MgCl2, 2 mM EDTA) was used. Compounds of invention were incubated with 1 nM [^3H]MK-912 for 60 min. at 25° C. MK912 is (2S-trans)-1,3,4,5′,6,6′,7,12b-octahydro-1′,3′-dimethyl-spiro[2 h-benzofuro [2,3-a]quinolizine-2,4′ (1′H)-pyrimidin]-2′ (3′H)-one hydrochloride Non-specific binding was estimated in the presence of 10 μM WB-4101 (2-(2,6-Dimethoxyphenoxyethyl)aminomethyl-1,4-benzodioxane hydrochloride). Receptor proteins were filtered and washed, the filters were then counted to determine [^3H]MK-912 specifically bound. Compounds were screened at 1 μM or lower, using 1% DMSO as vehicle. Biochemical assay results are presented as the percent inhibition of specific binding in Table 5.

[4] = biological target: T4, human recombinant dopamine D2L receptor (Homo sapiens, UniProt P14416); test: Dopamine D2L radioligand binding ([3H]Spiperone); settings: compound at 1 μM; read-out: Dopamine (1 μM) D2L, percent inhibition of specific binding
T4 construct: expressed in transfected cells; host or cells: CHO cells
Procedure, shortened: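 Human recombinant D2L receptor from CHO cells, in Tris-HCl buffer pH 7.4 with ascorbic acid, BSA and 150 mM NaCl; compounds at 1 μM or lower (1% DMSO) incubated with 0.16 nM [3H]spiperone, 120 min, 25° C. Nonspecific binding by 10 μM haloperidol; filter counting; % inhibition of specific binding.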

[5] = biological target: T5, human recombinant serotonin (5-Hydroxytryptamine) 5-HT2A receptor (Homo sapiens, UniProt P28223); test: Serotonin 5-HT2A radioligand binding ([3H]Ketanserin); settings: compound at 1 μM; read-out: Serotonin (1 μM) 5-HT2A, percent inhibition of specific binding
T5 construct: expressed in transfected cells; host or cells: CHO-K1 cells
Procedure, shortened: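 Percent inhibition of specific [3H]ketanserin (0.5 nM) binding, filtration read-out, with compounds at ≤1 μM (1% DMSO vehicle). Receptor source: recombinant human 5-HT2A in CHO-K1 cells, 50 mM Tris-HCl pH 7.4, 60 min, 25 °C; 1 μM mianserin gives nonspecific binding.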

T4 sequence (P14416 whole entry): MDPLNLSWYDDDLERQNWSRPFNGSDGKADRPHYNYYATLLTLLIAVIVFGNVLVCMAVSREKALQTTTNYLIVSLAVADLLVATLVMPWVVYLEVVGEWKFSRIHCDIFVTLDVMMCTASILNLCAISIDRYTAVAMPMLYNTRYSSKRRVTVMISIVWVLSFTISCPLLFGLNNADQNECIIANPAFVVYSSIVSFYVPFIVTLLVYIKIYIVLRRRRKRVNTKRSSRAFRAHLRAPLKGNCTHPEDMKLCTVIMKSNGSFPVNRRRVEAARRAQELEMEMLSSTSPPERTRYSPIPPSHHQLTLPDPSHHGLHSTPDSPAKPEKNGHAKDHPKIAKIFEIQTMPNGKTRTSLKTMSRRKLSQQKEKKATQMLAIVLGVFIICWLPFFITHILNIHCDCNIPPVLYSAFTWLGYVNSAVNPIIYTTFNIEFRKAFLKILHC
T1 sequence (P35367 whole entry): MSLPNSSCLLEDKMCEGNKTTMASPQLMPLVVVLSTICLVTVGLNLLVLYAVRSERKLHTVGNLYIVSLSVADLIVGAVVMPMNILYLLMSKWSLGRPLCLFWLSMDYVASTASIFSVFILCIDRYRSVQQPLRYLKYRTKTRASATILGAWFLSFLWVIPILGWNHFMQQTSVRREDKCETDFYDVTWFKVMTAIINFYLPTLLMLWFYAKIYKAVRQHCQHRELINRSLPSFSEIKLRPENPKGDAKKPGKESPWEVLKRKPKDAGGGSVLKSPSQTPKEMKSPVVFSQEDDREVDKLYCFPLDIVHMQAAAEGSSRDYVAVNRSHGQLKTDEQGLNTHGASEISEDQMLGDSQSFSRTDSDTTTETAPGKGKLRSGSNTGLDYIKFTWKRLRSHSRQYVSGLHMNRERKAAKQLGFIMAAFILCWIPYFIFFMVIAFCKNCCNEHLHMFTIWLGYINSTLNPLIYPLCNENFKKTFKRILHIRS
T2 sequence (P25021 whole entry): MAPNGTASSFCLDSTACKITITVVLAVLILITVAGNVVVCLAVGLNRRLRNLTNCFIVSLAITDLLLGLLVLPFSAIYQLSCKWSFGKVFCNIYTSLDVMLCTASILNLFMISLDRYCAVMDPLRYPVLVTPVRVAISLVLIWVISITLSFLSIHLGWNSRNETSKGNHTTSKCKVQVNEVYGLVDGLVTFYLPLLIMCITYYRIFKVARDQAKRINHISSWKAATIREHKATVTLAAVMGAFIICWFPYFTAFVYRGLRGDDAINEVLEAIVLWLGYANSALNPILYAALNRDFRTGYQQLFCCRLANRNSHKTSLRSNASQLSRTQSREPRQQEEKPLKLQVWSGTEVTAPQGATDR
T5 sequence (P28223 whole entry): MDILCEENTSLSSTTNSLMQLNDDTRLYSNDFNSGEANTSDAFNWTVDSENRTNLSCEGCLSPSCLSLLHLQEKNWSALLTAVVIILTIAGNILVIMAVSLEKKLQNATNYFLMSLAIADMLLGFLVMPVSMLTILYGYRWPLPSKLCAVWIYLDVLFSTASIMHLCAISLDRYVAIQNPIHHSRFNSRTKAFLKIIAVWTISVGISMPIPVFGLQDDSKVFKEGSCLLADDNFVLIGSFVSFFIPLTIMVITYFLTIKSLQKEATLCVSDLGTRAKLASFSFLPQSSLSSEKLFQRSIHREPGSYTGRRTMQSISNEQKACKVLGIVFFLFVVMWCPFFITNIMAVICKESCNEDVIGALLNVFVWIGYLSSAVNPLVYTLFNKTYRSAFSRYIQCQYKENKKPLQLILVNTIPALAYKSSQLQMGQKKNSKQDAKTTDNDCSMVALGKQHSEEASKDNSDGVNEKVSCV

SMILES	inhibition at 1 µM [1]	inhibition at 1 µM [2]	inhibition at 1 µM [3]	inhibition at 1 µM [4]	inhibition at 1 µM [5]
Cc1ccc2c(c1)c1c(n2CCc2cncc(Cl)c2)CCN(C)CC1 [Compound No. 4, 6-(2-(5-chloropyridin-3-yl)ethyl)-1,2,3,4,5,6-hexahydro-3,9-dimethylazepino[4,5-b]indole]	100%	59%	85%	2%	93%
CN1CCc2c(n(CCc3ccncc3)c3ccc(Cl)cc23)CC1 [Compound No. 5, 9-chloro-1,2,3,4,5,6-hexahydro-3-methyl-6-(2-(pyridin-4-yl)ethyl)azepino[4,5-b]indole]	100%	62%	97%	34%	96%
Cc1ccc2c(c1)c1c(n2CCc2ccncc2)CCN(C)CC1 [Compound No. 6, 1,2,3,4,5,6-hexahydro-3,9-dimethyl-6-(2-(pyridin-4-yl)ethyl)azepino[4,5-b]indole]	103%	52%	93%	30%	96%
Cc1ccc(C(O)Cn2c3c(c4cc(Cl)ccc42)CCN(C)CC3)cn1 (stereo not drawn) [Compound No. 7, 2-(9-chloro-2,3,4,5-tetrahydro-3-methylazepino[4,5-b]indol-6(1H)-yl)-1-(6-methylpyridin-3-yl)ethanol]	101%	52%	84%	15%	80%
CN1CCc2c(n(CCc3ccccn3)c3ccc(Cl)cc23)CC1 [Compound No. 8, 9-chloro-1,2,3,4,5,6-hexahydro-3-methyl-6-(2-(pyridin-2-yl)ethyl)azepino[4,5-b]indole]	97%	68%	95%	42%	97%
Cc1ccc2c(c1)c1c(n2CCc2ccccn2)CCN(C)CC1 [Compound No. 9, 1,2,3,4,5,6-hexahydro-3,9-dimethyl-6-(2-(pyridin-2-yl)ethyl)azepino[4,5-b]indole]	99%	44%	88%	20%	96%
CN1CCc2c(n(CCc3cncc(Cl)c3)c3ccc(Cl)cc23)CC1 [Compound No. 10, 9-chloro-6-(2-(5-chloropyridin-3-yl)ethyl)-1,2,3,4,5,6-hexahydro-3-methylazepino[4,5-b]indole]	101%	78%	96%	35%	94%
Cc1ccc2c(c1)c1c(n2CCc2ccc(C(=O)O)nc2)CCN(C)CC1 [Compound No. 11, 5-(2-(2,3,4,5-tetrahydro-3,9-dimethylazepino[4,5-b]indol-6(1H)-yl)ethyl)pyridine-2-carboxylic acid]	97%	7%	1%	-11%	5%
CN1CCc2c(n(CC(C)(O)c3ccc(Cl)cc3)c3ccc(Cl)cc23)CC1 (stereo not drawn) [Compound No. 12, 1-(9-chloro-2,3,4,5-tetrahydro-3-methylazepino[4,5-b]indol-6(1H)-yl)-2-(4-chlorophenyl)propan-2-ol]	99%	98%	101%	45%	100%
CN1CCc2c(n(CC(C)(O)c3ccc(F)cc3)c3ccc(Cl)cc23)CC1 (stereo not drawn) [Compound No. 13, 1-(9-chloro-2,3,4,5-tetrahydro-3-methylazepino[4,5-b]indol-6(1H)-yl)-2-(4-fluorophenyl)propan-2-ol]	98%	92%	94%	38%	97%
Cc1ccc2c(c1)c1c(n2CC(C)(O)c2ccc(F)cc2)CCN(C)CC1 (stereo not drawn) [Compound No. 14, 2-(4-fluorophenyl)-1-(2,3,4,5-tetrahydro-3,9-dimethylazepino[4,5-b]indol-6(1H)-yl)propan-2-ol]	98%	83%	90%	38%	101%
Cc1ccc2c(c1)c1c(n2CC(C)(O)c2ccc(Cl)cc2)CCN(C)CC1 (stereo not drawn) [Compound No. 15, 2-(4-chlorophenyl)-1-(2,3,4,5-tetrahydro-3,9-dimethylazepino[4,5-b]indol-6(1H)-yl)propan-2-ol]	100%	92%	93%	45%	101%
CN1CCc2c(n(CC(O)c3ccc(Cl)cc3)c3ccc(Cl)cc23)CC1 (stereo not drawn) [Compound No. 16, 2-(9-chloro-2,3,4,5-tetrahydro-3-methylazepino[4,5-b]indol-6(1H)-yl)-1-(4-chlorophenyl)ethanol]	103%	92%	105%	37%	101%
Cc1ccc2c(c1)c1c(n2CC(O)c2ccc(Cl)cc2)CCN(C)CC1 (stereo not drawn) [Compound No. 17, 1-(4-chlorophenyl)-2-(2,3,4,5-tetrahydro-3,9-dimethylazepino[4,5-b]indol-6(1H)-yl)ethanol]	101%	84%	105%	34%	102%
CN1CCc2c(n(CC(O)c3cccnc3)c3ccc(Cl)cc23)CC1 (stereo not drawn) [Compound No. 18, 2-(9-chloro-2,3,4,5-tetrahydro-3-methylazepino[4,5-b]indol-6(1H)-yl)-1-(pyridin-3-yl)ethanol]	98%	51%	92%	3%	88%
Cc1ccc2c(c1)c1c(n2CC(O)c2cccnc2)CCN(C)CC1 (stereo not drawn) [Compound No. 19, 2-(2,3,4,5-tetrahydro-3,9-dimethylazepino[4,5-b]indol-6(1H)-yl)-1-(pyridin-3-yl)ethanol]	99%	42%	69%	12%	80%
Cc1ccc2c(c1)c1c(n2CCc2ccc(C(F)(F)F)nc2)CCN(C)CC1 [Compound No. 20, 6-(2-(6-(trifluoromethyl)pyridin-3-yl)ethyl)-1,2,3,4,5,6-hexahydro-3,9-dimethylazepino[4,5-b]indole]	99%	37%	68%	13%	95%
CN1CCc2c(n(CCc3ccc(C(=O)O)nc3)c3ccc(Cl)cc23)CC1 [Compound No. 21, 5-(2-(9-chloro-2,3,4,5-tetrahydro-3-methylazepino[4,5-b]indol-6(1H)-yl)ethyl)pyridine-2-carboxylic acid]	96%	13%	-7%	6%	8%

Source: patent publication US9481676B2, “Azepino[4,5-B]indoles and methods of use” (Medivation Technologies, Inc., priority 2008, dated 2016)
